The source made the active and inactive calls. How the calls were made is not given here. A value given as a limit tells only on which side of the number the result lay.

A word on the Kd: it is a measure of binding affinity in units of concentration.

For the assay, the target named is Peptidyl-prolyl cis-trans isomerase FKBP1A (Homo sapiens) (UniProt P62942). In words: FKBP12 binders, biophysical, NMR detection (AID 608). Conditions: NMR binding, purified FKBP12.
Sequence of Peptidyl-prolyl cis-trans isomerase FKBP1A (Homo sapiens) (P62942 whole entry, looked up): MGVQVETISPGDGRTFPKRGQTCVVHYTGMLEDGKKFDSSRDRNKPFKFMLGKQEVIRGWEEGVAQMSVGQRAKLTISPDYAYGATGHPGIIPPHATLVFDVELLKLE
Take `NC(=O)c1cn(-c2ccccc2)nc1-c1cccnc1`: the Kd is > 4 mM (inactive).

As for `O=S(=O)(Cc1ccc(Cl)cc1)N1CCCC1`, the Kd is > 4 mM (inactive).

Turning to `COn1c(=O)c(-c2ccco2)[n+]([O-])c2ccccc21`, the Kd is > 4 mM (inactive).

On to `OCC1CCCCCN1` (configuration not stated), for which the Kd is > 4 mM (inactive).

As for `Cc1ccc(F)cc1NC(=O)c1ccc2c(c1)OCO2`, the Kd was > 4 mM (inactive).

In the case of `O=C1CCC(=O)N1c1cccc([N+](=O)[O-])c1`, the Kd is > 4 mM (inactive).

Regarding `Cc1ccc(-c2cc(C(=O)N3CCCC3)no2)cc1`, the Kd is > 4 mM (inactive).

As to `CC(=O)CNc1cc(CNC(C)=O)c(C)cc1C`, the Kd was > 4 mM (inactive).

Consider `O=C1CSC(=O)N1CN1CCOCC1`, for which the Kd was > 4 mM (inactive).

As to `O=c1nc(N2CCOCC2)nc2n1CCO2`, the Kd is > 4 mM (inactive).

For the molecule `COc1ccc2c(c1OC)C(=O)OC2[C@H]1c2c(cc3c(c2OC)OCO3)CCN1C` (some centres not stated), the Kd was > 4 mM (inactive).

For the molecule `COc1cc(OC)c2c(OC)c(-c3ccc4c(c3)OCO4)c(=O)oc2c1`, the Kd is > 4 mM (inactive).

Take `Cn1nnc2cc(C(=O)NC3=NCCS3)ccc21`: the Kd was > 4 mM (inactive).

Consider `O=S1(=O)NC(=NCc2ccco2)c2ccccc21`, for which the Kd was > 4 mM (inactive).

`O=S(=O)(c1cccc(Cl)c1)N1CCCC1`: the Kd is > 4 mM (inactive).

Turning to `O=c1[nH]c2ccc(S(=O)(=O)NC3CC3)cc2[nH]1`, the Kd was > 4 mM (inactive).

For `O=C1CCCN1c1ccc(S(=O)O)cc1`, the Kd is > 4 mM (inactive).

As to `O=S(=O)(c1cccc2cccnc12)N1CCOCC1`, the Kd is > 4 mM (inactive).

Turning to `NC(=O)C1CCN(c2nccc(C(F)(F)F)n2)CC1`, the Kd is > 4 mM (inactive).

Consider `NC(=O)CN1C(=O)c2cccc3cccc1c23`, for which the Kd is > 4 mM (inactive).

Consider `Nc1ccc(OCc2ccccc2)cc1`, for which the Kd is > 4 mM (inactive).

In the case of `CC(=O)Oc1cc(OC(C)=O)c2c(c1)O[C@H](c1ccc(OC(C)=O)c(OC(C)=O)c1)[C@H](OC(C)=O)C2`, the Kd was > 4 mM (inactive).

Turning to `Cc1[nH]c(=O)[nH]c(=O)c1N1CCOCC1`, the Kd was > 4 mM (inactive).

Turning to `Cc1cc(C)n(-c2ccc(Cl)nn2)n1`, the Kd is > 4 mM (inactive).

Regarding `CCOC(=O)c1csc(N)n1`, the Kd is > 4 mM (inactive).

Regarding `CC1CN(C(=O)COc2ccccc2Cl)CC(C)O1` (configuration not stated), the Kd was > 4 mM (inactive).

As to `CC(=O)Nc1cnn(Cc2ccc(Br)cc2)c1`, the Kd is > 4 mM (inactive).

With `CN(C)S(=O)(=O)c1ccc(NC=O)cc1`, the Kd is > 4 mM (inactive).

As for `O=C(O)c1cccc(O)c1O`, the Kd was > 4 mM (inactive).

Regarding `NC1=NC(=O)/C(=C/c2cccc([N+](=O)[O-])c2)S1`, the Kd was > 4 mM (inactive).

As to `S=c1nc(Cc2ccccc2)[nH][nH]1`, the Kd was > 4 mM (inactive).

On to `Cc1nnc(SCc2ccon2)n1-c1ccccc1`, for which the Kd is 0.0385 mM.

As to `C#CCCCCCCCCCCCC(=O)CC(O)COC(C)=O` (configuration not stated), the Kd was > 4 mM (inactive).

As for `O=S(=O)(c1ccc(F)c(Cl)c1)N1CCCC1`, the Kd was > 4 mM (inactive).

As for `COc1ccc2ccc(=O)oc2c1`, the Kd was > 4 mM (inactive).

As to `CN(C)c1nc(N2CCOCC2)c2cnn(C)c2n1`, the Kd is > 4 mM (inactive).

For `Cc1cc(C)n2nc(C(=O)Nc3cccnc3)nc2n1`, the Kd was > 4 mM (inactive).

In the case of `CC(=O)Nc1ccc(S(=O)(=O)NC2=NCCS2)cc1`, the Kd is > 4 mM (inactive).

With `CCOC(=O)c1cnc2n(c1=O)CCS2`, the Kd is > 4 mM (inactive).

For `O=[n+]1cc(-c2ccccc2)n([O-])c2c1CCC2`, the Kd is > 4 mM (inactive).

Turning to `COC(=O)c1scc(S(C)(=O)=O)c1-n1cccc1`, the Kd was > 4 mM (inactive).

`O=c1[nH]cc(Nc2ccccc2)c(=O)[nH]1`: the Kd is > 4 mM (inactive).

As to `NC(=O)C1CCN(C2CC(=O)NC2=O)CC1` (configuration not stated), the Kd was > 4 mM (inactive).

For `Cc1[nH]c2ccccc2c1CN(C)C`, the Kd is > 4 mM (inactive).

As to `O=C(O)CCCNC(=O)c1ccccc1C(=O)O`, the Kd is > 4 mM (inactive).

On to `Nc1ncccc1OCc1ccccc1`, for which the Kd was > 4 mM (inactive).

As to `CC(C)n1c(-c2ccncc2)n[nH]c1=S`, the Kd was > 4 mM (inactive).

For `O=C1C=C(O)c2ccccc2C1=O`, the Kd is > 4 mM (inactive).

Consider `CC(=O)NC(O)C(=O)c1cccs1` (configuration not stated), for which the Kd is > 4 mM (inactive).

As to `CN1C(=O)/C(=C/c2ccc(O)cc2O)SC1=S`, the Kd was > 4 mM (inactive).

`CC(=O)c1cccc(NS(=O)(=O)N2CCOCC2)c1`: the Kd result is “inactive”.

With `Fc1cccc(F)c1CN1CCN(c2ncccn2)CC1`, the Kd was > 4 mM (inactive).

As to `C/C=C/COc1nc2c(c(=O)n(C)c(=O)n2C)n1C`, the Kd was > 4 mM (inactive).

Take `O=C1CCCC(=O)N1Cc1ccco1`: the Kd was > 4 mM (inactive).

Turning to `N#Cc1sc2nc3c(c(-c4cccnc4)c2c1N)CCC3`, the Kd was > 4 mM (inactive).

For `O=S1(=O)CCC2CC=CCC21` (configuration not stated), the Kd is > 4 mM (inactive).

With `NC(=O)CSc1ccc2nnc(-c3cccs3)n2n1`, the Kd is > 4 mM (inactive).

For the molecule `COc1cccc(/C=C2/SC(N)=NC2=O)c1`, the Kd is > 4 mM (inactive).

Regarding `Nc1cc(C(=O)O)ccc1N1CCCCCC1`, the Kd was > 4 mM (inactive).

For `Cc1cc(C(F)(F)F)n2nc(C(=O)O)c(Cl)c2n1`, the Kd is > 4 mM (inactive).

`CS(=O)(=O)c1cccc(C(=O)Nc2nccs2)c1`: the Kd was > 4 mM (inactive).

For `O=C1NC(=S)S/C1=C/c1ccncc1`, the Kd was > 4 mM (inactive).

On to `Cc1noc(C)c1C(=O)NCc1ccco1`, for which the Kd is > 4 mM (inactive).

With `CC(=O)OCC(=O)[C@@]1(O)CCC2C3CC[C@@H]4C[C@H](OC(C)=O)CC[C@]4(C)C3C(=O)C[C@@]21C` (some centres not stated), the Kd is > 4 mM (inactive).

In the case of `Cc1ccc(NS(=O)(=O)N2CCCCC2)c(C)c1`, the Kd was 0.436 mM.

As for `CNC(=S)NCCN1CCOCC1`, the Kd was > 4 mM (inactive).

Turning to `CC(=O)O[C@H]1CC[C@@]2(C)C(C[C@@H](OC(C)=O)[C@@]3(C)C4=CC(=O)O[C@@H](c5ccoc5)[C@]4(C)CCC23)C1(C)C` (some centres not stated), the Kd was > 4 mM (inactive).

As for `CCOC(=O)CSCC(=O)Nc1nccs1`, the Kd is > 4 mM (inactive).

In the case of `CC(=O)Nc1ccc(N2CCOCC2)cc1`, the Kd was > 4 mM (inactive).

`CC(C)CCn1cnc2c1c(=O)n(C)c(=O)n2C`: the Kd was > 4 mM (inactive).

Consider `N#Cc1cc(-c2ccccc2)oc1N`, for which the Kd is > 4 mM (inactive).

Turning to `c1csc(-c2nnc3ccccn23)c1`, the Kd is > 4 mM (inactive).

For the molecule `CC1CN(C(=O)CSc2ccccc2)CC(C)O1` (configuration not stated), the Kd entry is “inactive”.

Turning to `O=C(O)C1CC(=O)N(Cc2ccco2)C1` (configuration not stated), the Kd was > 4 mM (inactive).

Regarding `Cc1cccc(NC(=O)c2ccccc2C(=O)O)c1`, the Kd is > 4 mM (inactive).

For the molecule `COc1cccc(OC)c1C(=O)N1CCOCC1`, the Kd is > 4 mM (inactive).

As to `O=C(c1ccccc1)N1CCN(c2ccccc2F)CC1`, the Kd is > 4 mM (inactive).

Regarding `Nc1ccc2[nH]ccc2c1`, the Kd is > 4 mM (inactive).

Regarding `O=C(O)c1cccc2nsnc12`, the Kd is > 4 mM (inactive).

For `Nc1nc(-c2ccc(O)cc2)cs1`, the Kd was > 4 mM (inactive).

For `Nc1ccc2c(c1)N1CCN=C1S2`, the Kd was > 4 mM (inactive).

For `C[C@H]1CCCC(=O)CCC/C=C/c2cc(O)cc(O)c2C(=O)O1`, the Kd is > 4 mM (inactive).

With `C[C@@H]1O[C@@H](O[C@H]2[C@@H](Oc3cc(O)c4c(c3)O[C@H](c3ccc(O)cc3)CC4=O)O[C@H](CO)[C@@H](O)[C@@H]2O)[C@H](O)[C@H](O)[C@H]1O`, the Kd is > 4 mM (inactive).

For `C[C@H](CCC(=O)O)[C@H]1CCC2C3C(CC[C@@]21C)[C@@]1(C)CC[C@@H](O)C[C@H]1C[C@@H]3O` (some centres not stated), the Kd is > 4 mM (inactive).

Turning to `OCC1=Cc2ccccc2OC1`, the Kd is > 4 mM (inactive).

On to `CCn1nnc(NC(=O)c2ccccc2Br)n1`, for which the Kd was > 4 mM (inactive).

Regarding `c1ccc2c(c1)ncn2CCn1cnc2ccccc21`, the Kd was > 4 mM (inactive).

`C[C@H]1[C@H](C)CC[C@]2(CO)CC[C@]3(C)C(=CCC4[C@@]5(C)CC[C@H](O)C(C)(C)C5CC[C@]43C)[C@H]12` (some centres not stated): the Kd is > 4 mM (inactive).

As for `COc1ccccc1NC(=O)CCC(=O)O`, the Kd is > 4 mM (inactive).

As for `CC(=O)c1c(O)n(C)c(=S)n(C)c1=O`, the Kd is > 4 mM (inactive).

As for `Cc1ccccc1CSc1nncn1N`, the Kd was > 4 mM (inactive).

In the case of `Cc1occc1C(=O)Nc1ccc2c(c1)OCO2`, the Kd is > 4 mM (inactive).

Turning to `COc1c(F)c(F)c(-c2csc(N)n2)c(F)c1F`, the Kd is > 4 mM (inactive).

Consider `COc1ccc2ccc(=O)oc2c1CC=C(C)C`, for which the Kd was > 4 mM (inactive).

Turning to `O=C(c1cnsn1)N1CCN(c2ccccn2)CC1`, the Kd was > 4 mM (inactive).

With `COc1ccc(C(=O)/C=C2\NC(=S)NC2=O)cc1`, the Kd was > 4 mM (inactive).

With `O=C(O)c1cc(O)c2c(c1)[C@@H]([C@H]1c3cc(C(=O)O)cc(O)c3C(=O)c3c(O[C@H]4O[C@H](CO)[C@@H](O)[C@H](O)[C@H]4O)cccc31)c1cccc(O[C@H]3O[C@H](CO)[C@@H](O)[C@H](O)[C@H]3O)c1C2=O`, the Kd was > 4 mM (inactive).

For the molecule `CCC1(CC)C(=O)NC(=O)N=C1N`, the Kd is > 4 mM (inactive).

For `Cc1cc(C(=O)Nn2cnnc2)cs1`, the Kd was > 4 mM (inactive).

On to `Nc1nncn1C(=O)c1ccccc1Cl`, for which the Kd is > 4 mM (inactive).

Turning to `Cc1ccccc1N1CCN(C(=O)C2CCCCC2)CC1`, the Kd was > 4 mM (inactive).

As for `CC(=O)c1cc2c(s1)SCC(=O)N2`, the Kd is > 4 mM (inactive).
